Source: ChEMBL document CHEMBL1687908, “Discovery of sulfated sterols from marine invertebrates as a new class of marine natural antagonists of farnesoid-X-receptor” (J Med Chem, 2011)
The source made the active and inactive calls.

Columns and labels:
Format in all cases: functional, cell-based
HepG2 = assay: Inhibition of CDCA-induced FXR expression in human HepG2 cells after 18 hrs by luminometric analysis
[1] = target: T1, Bile acid receptor (Homo sapiens) (UniProt Q96RI1); assay: Antagonist activity at FXR in human HepG2 cells assessed as inhibition of CDCA-induced OSTalpha gene expression at 50 uM by real time PCR
T1 sequence (whole entry): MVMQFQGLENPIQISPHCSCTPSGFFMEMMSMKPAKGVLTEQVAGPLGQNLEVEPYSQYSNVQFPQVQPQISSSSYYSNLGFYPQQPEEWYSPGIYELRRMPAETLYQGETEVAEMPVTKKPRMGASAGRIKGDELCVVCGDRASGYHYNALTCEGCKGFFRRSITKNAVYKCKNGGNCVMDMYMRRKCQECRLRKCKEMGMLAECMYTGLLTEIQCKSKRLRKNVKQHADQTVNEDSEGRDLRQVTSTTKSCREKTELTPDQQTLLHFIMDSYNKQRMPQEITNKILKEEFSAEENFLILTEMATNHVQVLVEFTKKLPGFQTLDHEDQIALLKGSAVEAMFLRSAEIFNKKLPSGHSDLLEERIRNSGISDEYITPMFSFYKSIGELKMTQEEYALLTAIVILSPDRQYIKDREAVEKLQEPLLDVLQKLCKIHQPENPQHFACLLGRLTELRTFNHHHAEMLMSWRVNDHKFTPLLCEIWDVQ

[2] = target: T1, Bile acid receptor (Homo sapiens); assay: Antagonist activity at FXR in human HepG2 cells assessed as inhibition of CDCA-induced BSEP gene expression at 50 uM by real time PCR
[3] = target: T1, Bile acid receptor (Homo sapiens); assay: Antagonist activity at FXR in human HepG2 cells assessed as inhibition of CDCA-induced OSTbata gene expression at 50 uM by real time PCR
[4] = target: T1, Bile acid receptor (Homo sapiens); assay: Antagonist activity at FXR in human HepG2 cells assessed as inhibition of CDCA-induced Cyp7A1 gene expression at 50 uM by real time PCR
[5] = target: T1, Bile acid receptor (Homo sapiens); assay: Antagonist activity at FXR expressed in human HepG2 cells assessed as stabilization of the NCoR at the OSTalpha promoter at 50 uM after 18 hrs by chromatin immunoprecipitation

C[C@H](CO)[C@@H](C)CC[C@@H](COS(=O)(=O)O)[C@H]1CC[C@H]2[C@@H]3CC[C@@H]4[C@H](O)[C@H](OS(=O)(=O)O)CC[C@]4(C)[C@H]3CC[C@]12C
active: inhibition (HepG2) Dose-dependent effect | inhibition [1] | inhibition [2] | inhibition [3] | inhibition [4] | Activity [5]
